Here are results for 13 compounds from patent US4738803A, “Amino acid derivatives and their use as antidepressives and hypotensive agents” (priority 1981, dated 1988).

Like-named read-outs stand apart in the source and are kept apart here.

In data set [1] the test system is withdrawal of the tail of mice. The data set can be described thus: Withdrawal of the tail immersed in water heated to 48° C. Format: in vivo. As to the method:
(2) Test in mice of the withdrawal of the tail immersed in water heated to 48° C. according to the method of Sewell and Spencer (Neuropharmacology, 1976, 15, p. 683-688).

Data set [2] has as its system licking reflex of mice on a plate heated at 55° C. Description: Hot plate test: specific antalgic effect. Format: in vivo. The settings on record: for antalgic effect in the hot plate test: 55° C, intravenous, in words; for ED50: hot plate 55° C, i.v. As to the method: (§1) Licking reflex of mice on a plate heated at 55° C. according to the method of Jacob et co-workers (Arch. Int. Pharmacodyn. 122, 287-300, 1959: 133, 296-300, 1961).
(b) Specific antalgic effect
By the intravenous route.
(In hot-plate and tail-flick tests a longer latency is read as antinociception.)

For the next data set, the target named is enkephalinase. The data set can be described thus: Dosage of enkephalinasic (enkephalin dipeptidylcarboxypeptidasic) activity, effect of the inhibitors (striatal membrane fraction). Type of data set: biochemical, rat or mouse. As to conditions: 10 nM leucine-enkephalin ^3H, 0.1 mM puromycine, pH 7.4, 25° C, 15 min; read-out: 50% inhibitory concentration. As to the method: (I) Dosage of the "enkephalinasic" activity (enkephalin dipeptidylcarboxypeptidasic) and determination of the effect of the inhibitors
The enzyme preparation employed is a membrane fraction from the striatum of the rat or mouse.
This fraction is obtained by homogenization at 4° C. in 20 volumes of Tris-Hl buffer 0.05M (pH 7.4) followed by two successive centrifugations (1000 g×min. and 200,000 g×min.) at the end of which the sediment of the second centrifugation is retained. It is washed by resuspension in 10 ml of the buffer followed by centrifugation (200,000 g×min.) and the resulting sediment is in turn washed superficially to complete the removal soluble enzymes. The resulting membrane fraction is taken up into the buffer at 4° C. to obtain a suspension comprising about 1.5 mg of proteins per ml.
An aliquot sample (50 μl) of the membrane suspension is then incubated in a final volume of 100 μl at 25° C. in the presence of 10 nM leucine-enkephalin ^3 H (39 Ci/mmole), previously purified by column chromatography over Porapak Q(100-120 mesh, Waters Assoc.) and 0.1 mM puromycine, an aminopeptidase inhibitor. The incubation time is generally set at 15 min. so as to determine the initial rate of formation of tripeptide Tyr-Gly-Gly-^3 H caracteristic of the enkephalin dipeptidylcarboxypeptidasic (enkephalinasic) activity. The reaction is terminated by the addition of 25 μl of 0.2N HCl and the tripeptide is isolated by column chromatography over Polopak Q or on a thin layer of silica, according to the methods described by Malfroy et al (B. Malfroy, J. P. Swerts, C. Llorens and J. C. Schwartz, Neuro-Science Letters, 11, 329, 1979).
The results obtained with either method have always been consistent.
Determination of the radioactivity of the tripeptide is effected by liquid scintillation spectrometry.
The effect of the inhibitors is established by experiments with increasing concentrations of such materials, which leads to the determination of the 50% inhibitory concentrations calculated by means of data according to the method of Parker and Waud (J. Pharmacol. Exper. Ther. 177, 1, 1971). In some cases, the competitive nature of the inhibition was established by incubation experiments with a fixed concentration of the inhibitor and increasing concentrations of the substrate.

Data set [3] deals with licking reflex of mice on a plate heated at 55° C. The data set can be described thus: Hot plate test: potentiation of the antalgic effect of D Ala2 Met Enkephalin. Format: in vivo. The settings on record: for increase in the licking time with respect to animals treated with DAla2 Met Enkephalin (0.3γ intraventricular): 30 mg/kg intravenous; for antagonism of the potentiating effect by Naloxone / potentiation of the effect of a subactive dosage (0.3γ) of D Ala2 Met Enkephalin: 30γ, in words; for potentiation of the effect of a subactive dosage (0.3γ) of D Ala2 Met Enkephalin: p<0.05. As to the method:
as §1
(a) Potentiation of the antalgic effect of DAla2 Met Enkephalin:
(α) By the intraventricular route (ivt):
(β) By the intravenous route:
When administered by the intravenous route, the derivatives No. 2, 30 and 63 at the dose of 30 mg/kg produce a 100% increase in the licking time with respect to animals treated with DAla2 Met Enkephalin (0.3γ intraventricular).

Data set [4] deals with phenylbenzoquinone-induced pain. The data set can be described thus: Phenylbenzoquinone or "writhing" test. Format: in vivo, mouse. The settings on record: for protection from phenylbenzoquinone-induced pain: p<0.01 versus controls. The source says: (3) Phenylbenzoquinone or "writhing" test according to the method of Siegmund and co-workers (Proc. Soc. Expert Biol. Med. 1957, 95, 729-731).
Here again, if the antinociceptive effects of these compounds are compared with those of Thiorphan, a selective enkephalinase-inhibitor, a distinctly greater maximum effect is observed. […] This more pronounced analgesic effect is attributable to an improved protection of the endogenic opioid peptides, in relation with the inhibition not only of the enkephalinase, but also of the aminopeptidases involved in their hydrolysis.
In general terms: An intraperitoneal irritant provokes the stretching counted in writhing tests.

In the next data set the test system is mice. The data set can be described thus: Subacute toxicity, intraperitoneal, three weeks. As to the method:
The derivative 63 was administered by the intraperitoneal route for three weeks to mice at the dose of 50 mg/kg three times a day (150 mg/kg/day).

For data set [5], the system named is (Met^5) enkephalin liberated by depolarisation of striatum sections. The data set can be described thus: Protection of endogenic enkephalins liberated by depolarisation of striatum sections. Type of data set: cell-based, rat. As to conditions: for (Met^5) liberated enkephalin: 50 mM KCl, no inhibitor: 120 ± 25. As to the method: (II) Protection of the endogenic […] liberated by depolarisation of the brain sections
Stratium sections of the rat are incubated in a medium of Krebs-Ringer and the (Met^5) enkephalin liberated by addition of 50 mM KCl is evaluated by radioimmunologic dosage (Patey and Coll., Science, 1981, 212, 1153-1155).
The higher protection of the liberated enkephalins afforded by these compounds is thence attributed to the inhibition of peptidases (probably aminopeptidases) other than those which are sensitive to thiorphan.

A further data set relates to immobile periods of mice. The settings on record: 1 mg/kg i.v.; p<0.001; in words. The source says:
Forced swimming or "Mice Despair" test according to Porsolt's method.
This test is representative of an antidepressive effect.

The subject of another data set is blood pressure. The settings on record: 10 mg/kg intravenous; in words. The source says:
(VI) Hypotensive Activity
Specific enkephalin-potentiating activity, (Laubie M. Schmith H., Vincent M., Remon D. Central cardiovascular effects of Morphinometic peptides in dogs. European Journal of Pharmacology, vol. 46, 67-71, 1977).

[6] abbreviates: 30 mg/kg intravenous, DAla2 Met Enkephalin 10 to 30γ/mouse ivt 15 minutes later.
The mark [7] stands for this setting: 30 γ/mouse ivt, D Ala2 Met Enkephalin 0.3 γ/mouse.

In general, ED50 refers to the dose that gives a 50% effect, or the effect in half of the subjects. As to `COC(=O)CNC(=O)[C@H](Cc1ccccc1)NP(=O)(O)O` [Derivative 2, N-phosphoryl L-phenylalanine-glycine methyl ester], in data set [1] (setting [6]), the “potentiation of DAla2 Met Enkephalin” value is recorded as “potentiate very significantly”. Moreover, the “antalgic effect in the hot plate test” value in data set [2] is “have an antalgic effect”. Further, the ED50 in [2] (Mus musculus, iv, read-out: ED50) was 30 mg/kg. For the same compound, the IC50 on enkephalinase came to 70 nM. For the same compound, in data set [3], the “increase in the licking time with respect to animals treated with DAla2 Met Enkephalin (0.3γ intraventricular)” value (from here on “increase … (0.3γ intraventricular)”) is 100%. Further, the “protection from phenylbenzoquinone-induced pain” value (shortened to “protection”) in [4] (15 mg/kg i.v.) is on record as “protect the treated animals from phenylbenzoquinone-induced pain”. Also, in data set [4] (in words), the “antagonism of the protective effect by Naloxone” value is “antagonized by Naloxone”.

Turning to `COC(=O)CC(=O)NC(Cc1ccccc1)NP(=O)(O)O` (stereo not drawn) [Derivative 4, N-phosphoryl, N'-(2-methoxycarbonylacetyl) 1,1-diamino 2-phenyl ethane], at enkephalinase, the IC50 is 100 nM.

In the case of `O=CN(O)CC(Cc1ccccc1)C(=O)NCC(=O)NCc1ccc(F)cc1` (stereo not drawn) [Derivative 63, N-(N-hydroxy 3-formamido 2-benzylpropanoyl)-glycine p-fluoro benzylamide], in the data set on mice (50 mg/kg i.p. three times a day (150 mg/kg/day)), the “weight increase rate and signs of toxicity” value is listed as “did not exhibit any change in the weight increase rate or any sign of toxicity”. Further, the “weight of the organs and anatomic-pathologic examination” value in the data set on mice (50 mg/kg i.p. three times a day, versus solvent controls) is listed as “no difference”.

Consider `O=CN(O)CC(Cc1ccccc1)NC(=O)CC(=O)O` (stereo not drawn) [Derivative 69], for which the IC50 on enkephalinase stood at 7 nM.

As to `O=CN(O)CC(Cc1ccccc1)NC(=O)CC(=O)NCc1ccccc1` (stereo not drawn) [Derivative 71], at enkephalinase, the IC50 was 200 nM.

Regarding `O=C(O)CNC(=O)C(CS)Cc1ccccc1` (stereo not drawn) [Thiorphan, reference compound], the “(Met^5) liberated enkephalin” value in data set [5] (added inhibitor 10^-7 M) was found to be 280 ± 30 pmol/g/min. In addition, the “recovery of the pentapeptide” value in data set [5] (in words, presence of thiorphan) is given as “approximately doubled”. Moreover, the “elimination of the abdominal stretchings of the mouse” value in data set [4] (in words, thiorphan even at a heavy dose) is “never completely eliminates the abdominal stretchings”.

Turning to “D Ala2 Met Enkephalin [reference compound]”, the “activity of D Ala2 Met Enkephalin alone” value in data set [3] (0.3 γ/mouse, intraventricular) is “inactive in itself”.

Take “N-(2-bensyloxyamino 3-phenyl propanoyl)-glycine isoamylamide [Derivative 22]”: in data set [1] (setting [6]), the “potentiation of DAla2 Met Enkephalin” value was “potentiate very significantly”. For the same compound, in data set [2], the “antalgic effect in the hot plate test” value is reported as “have an antalgic effect” and the 50% effective dose (ED50) amounted to 18 mg/kg. The IC50 on enkephalinase was found to be 100 nM. In data set [3], the “increase … (0.3γ intraventricular)” value came out at 100%. In addition, the “protection” value in data set [4] (18 mg/kg i.v.) was “protect the treated animals from phenylbenzoquinone-induced pain”. For the same compound, in [4] (in words), the “antagonism of the protective effect by Naloxone” value was “antagonized by Naloxone”.

“N-(N-benzyloxy 3-formamido 2-benzyl propnaoyl)-glycine methyl ester [Derivative 39]”: the ED50 in data set [2] was determined as 25 mg/kg. Further, in data set [5] (added inhibitor 10^-7 M), the “(Met^5) liberated enkephalin” value amounted to 630 ± 50 pmol/g/min. At enkephalinase, the IC50 is 3 nM. Further, the “% increase in the licking time with respect to animals treated with D Ala2 Met enkephalin” value (from here on “% increase in the licking time”) in data set [3] (setting [7]) stood at 300%.

Take “N-[2-(N-hydroxy carbamoyl 3-phenyl propanoyl]-glycine [Derivative 32]”: the IC50 on enkephalinase was 5 nM.

On to “N-[2-(N-hydroxy carbamoyl) 3-phenyl propanoyl]-glycine methyl ester [Derivative 30]”, for which the “(Met^5) liberated enkephalin” value in data set [5] (added inhibitor 10^-7 M) amounted to 600 ± 30 pmol/g/min. Further, the IC50 on enkephalinase was 3 nM. Moreover, in [3] (intraventricular), the “antagonism of the potentiating effect by Naloxone” value is “antagonised by Naloxone” and the “potentiation of the effect of a subactive dosage (0.3γ) of D Ala2 Met Enkephalin” value is recorded as “significantly potentiated”. Further, in data set [3] (setting [7]), the “% increase in the licking time” value is 320%.

For “N-[2-(N-hydroxy β-trifluoroethyl carboxamido)3-phenyl propanoyl]-glycine [Derivative 53]”, the “potentiation of DAla2 Met Enkephalin” value in data set [1] (5 mg/kg) is given as “also observed”. In the data set on immobile periods of mice, the “duration (in seconds) of the immobile periods with respect to the controls” value is “significantly reduces”. In addition, in data set [2], the “antalgic effect in the hot plate test” value is on record as “have an antalgic effect” and the ED50 worked out at 3 mg/kg. For the same compound, the “reduction in the blood pressure” value with blood pressure is on record as “reduction in the blood pressure”. Further, the IC50 on enkephalinase was 50 nM. For the same compound, the “increase … (0.3γ intraventricular)” value in data set [3] is 100%. Also, the “protection” value in [4] (1 mg/kg i.v.) is reported as “protect the treated animals from phenylbenzoquinone-induced pain”. In addition, the “antagonism of the protective effect by Naloxone” value in data set [4] (in words) is “antagonized by Naloxone”.

For “N-phorphoryl L-alanine-thioproline trifluoroethyl ester [Derivative 21]”, in data set [5] (added inhibitor 10^-6 M), the “(Met^5) liberated enkephalin” value was 550 ± 40 pmol/g/min. For the same compound, the IC50 at enkephalinase was found to be 8 nM. Besides, in data set [3] (intraventricular), the “antagonism of the potentiating effect by Naloxone” value is recorded as “antagonised by Naloxone” and the “potentiation of the effect of a subactive dosage (0.3γ) of D Ala2 Met Enkephalin” value was “significantly potentiated”. In data set [3] (30 γ/mouse ivt + D Ala2 Met Enkephalin 0.3 γ/mouse + Naloxone 10 mg/kg s.c.), the “% increase in the licking time” value came to 18%. The “% increase in the licking time” value in data set [3] (setting [7]) was 350%.
